Reference: article PMC6269938, “Natural Aristolactams and Aporphine Alkaloids as Inhibitors of CDK1/Cyclin B and DYRK1A” (Molecules, 2013)
Entries after “also recorded” stand apart in the source; their conditions may differ. Read-outs that look alike come from different tables or passages of the source.

Tests used:
CDK1/Cyclin B = CDK1/Cyclin B kinase inhibition assay; assay type: biochemical, starfish (Marthasterias glacialis)
Method: (§1) Values were background subtracted, and activities were calculated as pmoles of phosphate incorporated during a 10 min incubation. […] Controls were performed with appropriate dilutions of DMSO.
CDK1/Cyclin B was extracted in homogenisation buffer from M phase starfish (Marthasterias glacialis) oocytes and purified by affinity chromatography on p9^CKShs1-Sepharose beads, from which it was eluted with free p9^CKShs1 as previously described. […] After a 10 min incubation at 30 °C, 25 µL aliquots of supernatant were spotted onto P81 phosphocellulose paper and treated as described above.

DYRK1A = DYRK1A (Rattus norvegicus, UniProt Q63470); assay: DYRK1A kinase inhibition assay; assay type: biochemical; details: for DYRK1A inhibition at 30 µM, in words: concentration of 30 µM; for IC50 / DYRK1A (IC50 in μM): mean of triplicates, variation max 20%, ATP 15 µM, 30 °C
Method: as §1
DYRK1A (rat, recombinant, expressed in E. coli as a GST fusion protein) was purified by affinity chromatography on glutathione-agarose and assayed as described.

CDK4 = tested on: CDK4; parameters: method as in PMID 20097074, PMID 20097066; details: previous studies; cited from earlier work
[1] = tested on: polo-box domain of Polo-like kinase 1; parameters: method as in PMID 19801998; details: cited from earlier work
CDK2 = tested on: CDK2; parameters: method as in PMID 20097074, PMID 20097066; details: previous studies; cited from earlier work
Aurora 2 kinase = target: Aurora 2 kinase; parameters: method as in PMID 20097074, PMID 20097066; details: previous studies; cited from earlier work
cancer cell = tested on: cancer cell; parameters: method as in PMID 19801998; details: cited from earlier work
human colon cancer cells = tested on: human colon cancer cells; parameters: method as in doi:10.1016/j.procbio.2012.05.018; details: cited from earlier work
human lung cancer cells = tested on: human lung cancer cells; parameters: method as in PMID 15473647; details: concentration of 20 μM; cited from earlier work
[2] = mean of triplicates, variation max 20%, ATP 15 µM, histone H1, 30 °C

| Compound | CDK1/Cyclin B inhibition at 30 µM, in words (CDK1/Cyclin B; concentration of 30 µM) | IC50 (CDK1/Cyclin B; [2]) | DYRK1A inhibition at 30 µM, in words (DYRK1A) | IC50 (DYRK1A) | further results |
| --- | --- | --- | --- | --- | --- |
| COc1cc2c3c(c1O)-c1c(ccc(OC)c1OC)CC3N(C)CC2 (single isomer, unassigned; (+)) [Compound 6, (+)-corydine] | inactive | > 30 µM | inactive | > 30 µM | – |
| COc1ccc2c(c1O)-c1c3c(cc4c1C(C2)N(C)CC4)OCO3 (single isomer, unassigned; (+)) [Compound 9, (+)-bulbocapnine] | inactive | > 30 µM | inactive | > 30 µM | – |
| COc1ccc2c(c1O)-c1c(OC)c(O)cc3c1C(C2)N(C)CC3 (single isomer, unassigned; (+)) [Compound 10, (+)-N-methyllindcarpine] | inactive | > 30 µM | inactive | > 30 µM | – |
| COc1cc2c(cc1O)CC1NCCc3cc4c(c-2c31)OCO4 (single isomer, unassigned; (+)) [Compound 11, (+)-actinodaphnine] | inactive | > 30 µM | inactive | > 30 µM | – |
| COc1c2c(cc3c1-c1c4c(cc5c1C(C3)NCC5)OCO4)OCO2 (single isomer, unassigned; (+)) [Compound 12, (+)-11-methoxynorneolistine] | – | – | – | – | CDK1/Cyclin B inhibition at 30 µM, in words (CDK1/Cyclin B): did not inhibit; also recorded: unable to inhibit; IC50 (CDK1/Cyclin B): > 30 µM |
| COc1cc2c3c(c1OC)-c1ccccc1CC3NCC2 (single isomer, unassigned; (+)) [Compound 15, (+)-N-nornuciferine] | unable to inhibit | > 30 µM | – | 4.2 µM | CDK1/Cyclin B inhibition at 30 µM, in words (CDK1/Cyclin B; concentration of 30 µM, listed as N-nornuciferine (15)): did not inhibit |
| COc1cc2c(cc1O)CC1c3c(cc(O)c(OC)c3-2)CCN1C (single isomer, unassigned; (+)) [Compound 16, (+)-boldine] | inactive | > 30 µM | inactive | > 30 µM | – |
| COc1cc([C@H]2OC[C@@H]3C(c4cc(OC)c(O)c(OC)c4)OC[C@H]23)ccc1O (single isomer, unassigned; (-)) [Compound 5, (−)-medioresinol] | – | 1.3 µM | – | 0.1 µM | DYRK1A (IC50 in μM) (DYRK1A): submicromolar |
| CN1CCc2cc3c(c4c2C1Cc1ccccc1-4)OCO3 (single isomer, unassigned; (-)) [Compound 7, (−)-roemerine] | unable to inhibit; also recorded: inactive | > 30 µM | inactive | 15 µM | – |
| COc1c2c3c(c(OC)c1OC)-c1ccccc1CC3NCC2 (single isomer, unassigned; (-)) [Compound 14, (−)-O-methylisopiline] | inactive | > 30 µM | inactive | > 30 µM | – |
| COc1c(O)cc2c3c(cc4ccccc4c13)NC2=O [Compound 1, aristolactam AII] | inactive | > 30 µM | – | – | – |
| COc1cc2c3c(cc4c(O)cccc4c3c1OC)NC2=O [Compound 3, velutinam] | – | 1.5 µM | – | 0.6 µM | DYRK1A (IC50 in μM) (DYRK1A): submicromolar |
| COc1c(O)cc2c3c(cc4ccc(O)cc4c13)NC2=O [Compound 4, aristolactam AIIIA] | – | 0.2 µM | – | 0.08 µM | IC50 (CDK4): 1.42 µM; ligand targeting the polo-box domain of Polo-like kinase 1 [1]: new ligand; IC50 (CDK2): 0.14 µM; IC50 (Aurora 2 kinase): 2.14 µM; DYRK1A (IC50 in μM) (DYRK1A): submicromolar; cancer cell proliferation, mitotic arrest at G2/M phase, apoptosis (cancer cell): could inhibit cancer cell proliferation |
| O=C1c2ccccc2-c2c3c(cc4ccnc1c24)OCO3 [Compound 8, liriodenine] | unable to inhibit | > 30 µM | – | 3.1 µM | CDK1/Cyclin B inhibition at 30 µM, in words (CDK1/Cyclin B; concentration of 30 µM, listed as Liriodenine (8)): did not inhibit; growth of human colon cancer cells, G1/S cell cycle arrest (human colon cancer cells): inhibited the growth; apoptosis induction by inhibiting CDK1/Cyclin B kinase activity, G2/M cell cycle arrest (human lung cancer cells): induced apoptosis |
| COc1cc2ccnc3c2c(c1OC)-c1ccccc1C3=O [Compound 13, lysicamine] | unable to inhibit | > 30 µM | – | 2.4 µM | CDK1/Cyclin B inhibition at 30 µM, in words (CDK1/Cyclin B; concentration of 30 µM, listed as lysicamine (13)): did not inhibit |
